According to patent publication US9029385B2, “Compositions and methods for treating fibroproliferative disorders” (priority 2007, dated 2015):

What was measured:
Format in all cases: in vivo
glutathione (GSH) = test: Bleomycin-induced pulmonary fibrosis mouse model: total glutathione in bronchoalveolar lavage fluid; conditions: mice, BLM IT; NAC 20 mg/kg IP daily; FIG. 8
Description: (§1) FIG. 8 illustrates total glutathione levels in bronchoalveolar lavage fluid (BALF) in different experimental groups, as indicated. Data are representative of 4 independent experiments, and presented as mean±SD (n=5). The composition including pentoxifylline (PTX) and N-acetyl-cysteine (NAC) was assessed in vivo in a mouse model using an experimental design in which a pulmonary fibrosis was generated using bleomycin injury of lung. Bleomycin (BLM) is an effective antineoplastic drug that binds to and damages DNA of tumour cells. However, administration of BLM may result in lung inflammation that can progress to fibrosis. This side effect is due mostly to augmented concentration of reactive oxygen species, decrease in nicotinamide adenine dinucleotide (NAD) and adenosine triphosphate (ATP), and overproduction of mature collagen fibrils. Because BLM-induced lung fibrosis is easily reproduced in different species of mammals, experimental models using the drug have been adopted with the goal of investigating the efficacy of the current invention. [table] […] In addition, the lung weights were recorded, photographs of the lungs were taken and tissue samples processed either for biochemical analysis of hydroxyproline (immediately frozen on dry ice) or further morphological analysis (immersed in fixative solution of 10% neutral-buffered formalin). […]

[1] = system: bleomycin-induced pulmonary fibrosis; test: Bleomycin-induced pulmonary fibrosis mouse model: lung histopathology and semi-quantitative lesion score (Masson trichrome); conditions: mice, fourteen days after intratracheal bleomycin; PTX 10 mg/kg and/or NAC 20 mg/kg IP daily; vs untreated BLM animals
Source text: FIG. 4 illustrates representative photomicrographs of lung histopathology. Normal lung histology is shown in panel A (Group I-saline). […] Collagen is stained with Masson trichrome (light blue color). Original ×10 and ×40 magnifications are shown. FIG. 5 illustrates the effect of pentoxifylline and N-acetyl-cysteine on histological lesions scores of the extent and severity of fibrosis in the experimental groups, as indicated. Data are representative of 5 independent experiments, presented as mean±SD (n=4). The composition including pentoxifylline (PTX) and N-acetyl-cysteine (NAC) was assessed in vivo in a mouse model using an experimental design in which a pulmonary fibrosis was generated using bleomycin injury of lung. Bleomycin (BLM) is an effective antineoplastic drug that binds to and damages DNA of tumour cells. However, administration of BLM may result in lung inflammation that can progress to fibrosis. […] In addition, the lung weights were recorded, photographs of the lungs were taken and tissue samples processed either for biochemical analysis of hydroxyproline (immediately frozen on dry ice) or further morphological analysis (immersed in fixative solution of 10% neutral-buffered formalin).

TNF-α = test: Bleomycin-induced pulmonary fibrosis mouse model: TNF-α in bronchoalveolar lavage fluid by ELISA; conditions: mice, day 5 post bleomycin instillation, PTX 10 mg/kg, NAC 20 mg/kg IP daily, FIG. 7
Description: as §1, with “Difference of TNF-α at day 5 post bleomycin instillation is shown. Values” for “FIG. 8 illustrates total glutathione levels in bronchoalveolar lavage fluid (BALF) in different experimental groups, as indicated. Data”, “means±SD; 5 mice per group.” for “representative of 4 independent experiments, and presented as mean±SD (n=5).”, “[table] Mice (under anesthesia) received a single intratracheal dose of either saline (control) or bleomycin (BLM).” for “[table]”

[2] = system: bleomycin-induced pulmonary fibrosis; test: Bleomycin-induced pulmonary fibrosis mouse model: wet lung weight; conditions: mice, BLM 0.06 U IT; IP daily for 14 days (PTX 10 mg/kg, NAC 20 mg/kg); vs BLM + saline; FIG. 3
Description: The composition including pentoxifylline (PTX) and N-acetyl-cysteine (NAC) was assessed in vivo in a mouse model using an experimental design in which a pulmonary fibrosis was generated using bleomycin injury of lung. Bleomycin (BLM) is an effective antineoplastic drug that binds to and damages DNA of tumour cells. However, administration of BLM may result in lung inflammation that can progress to fibrosis. This side effect is due mostly to augmented concentration of reactive oxygen species, decrease in nicotinamide adenine dinucleotide (NAD) and adenosine triphosphate (ATP), and overproduction of mature collagen fibrils. Because BLM-induced lung fibrosis is easily reproduced in different species of mammals, experimental models using the drug have been adopted with the goal of investigating the efficacy of the current invention. […] In this example, the effects of PTX and NAC in combination were studied in comparison to PTX and NAC individually. […] In addition, the lung weights were recorded, photographs of the lungs were taken and tissue samples processed either for biochemical analysis of hydroxyproline (immediately frozen on dry ice) or further morphological analysis (immersed in fixative solution of 10% neutral-buffered formalin).

| SMILES | total glutathione (GSH) level in BALF (glutathione (GSH)) | anti-fibrotic effect seen in lung histology [1] | BLM-induced increase in TNF-α level in BALF (TNF-α) | lung weight [2] |
| --- | --- | --- | --- | --- |
| CC(=O)N[C@@H](CS)C(=O)O [NAC, N-acetyl-L-cysteine] | GSH levels can indeed be supplemented | marked anti-fibrotic effect | significantly decreased | lower lung weights were observed but statistical significance was not reached |
| CC(=O)CCCCn1c(=O)c2c(ncn2C)n(C)c1=O [PTX, pentoxifylline] | – | – | significantly decreased | lower lung weights were observed but statistical significance was not reached |
